Several values for one entry are separate records, joined by “and”; a condition that tells them apart may be missing. Equal values may be shown once. Blank lines part the entries; values can stand above or below the compound they belong to.
System: 233499-124-R-J3-PDC complex spheroid viability, % test/control
Assay: Anticancer human tumor 233499-124-R-J3-PDC patient-derived colon adenocarcinoma cell line growth inhibition
Conditions: for viability, T/C: stronger effect = lower value
Summary of the method: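 Multicellular complex spheroids of tumor cells with human endothelial cells (HUVEC) and mesenchymal stem cells; the LSD1 inhibitor iadademstat was combined with standard-of-care or investigational agents. Top concentration at or near clinical Cmax, half-log dilutions; final DMSO ≤0.25%.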

[1] = curve of first compound, second compound 0.1 µM
[2] = curve of first compound, second compound 0.316 µM
[3] = curve of first compound, second compound 1 µM
[4] = curve of first compound, second compound 3.16 µM
[5] = curve of first compound, second compound 10 µM
[6] = second compound 0.1 µM, first compound 0.000316 µM
[7] = second compound 0.1 µM, first compound 0.001 µM
[8] = second compound 0.1 µM, first compound 0.00316 µM
[9] = second compound 0.1 µM, first compound 0.01 µM
[10] = second compound 0.1 µM, first compound 0.0316 µM
[11] = second compound 0.1 µM, first compound 0.1 µM
[12] = second compound 0.316 µM, first compound 0.000316 µM
[13] = second compound 0.316 µM, first compound 0.001 µM
[14] = second compound 0.316 µM, first compound 0.00316 µM
[15] = second compound 0.316 µM, first compound 0.01 µM
[16] = second compound 0.316 µM, first compound 0.0316 µM
[17] = second compound 0.316 µM, first compound 0.1 µM
[18] = second compound 1 µM, first compound 0.000316 µM
[19] = second compound 1 µM, first compound 0.001 µM
[20] = second compound 1 µM, first compound 0.00316 µM
[21] = second compound 1 µM, first compound 0.01 µM
[22] = second compound 1 µM, first compound 0.0316 µM
[23] = second compound 1 µM, first compound 0.1 µM
[24] = second compound 3.16 µM, first compound 0.000316 µM
[25] = second compound 3.16 µM, first compound 0.001 µM
[26] = second compound 3.16 µM, first compound 0.00316 µM
[27] = second compound 3.16 µM, first compound 0.01 µM
[28] = second compound 3.16 µM, first compound 0.0316 µM
[29] = second compound 3.16 µM, first compound 0.1 µM
[30] = second compound 10 µM, first compound 0.000316 µM
[31] = second compound 10 µM, first compound 0.001 µM
[32] = second compound 10 µM, first compound 0.00316 µM
[33] = second compound 10 µM, first compound 0.01 µM
[34] = second compound 10 µM, first compound 0.0316 µM
[35] = second compound 10 µM, first compound 0.1 µM
[36] = second compound 0.1 µM, first compound 0.00949 µM
[37] = second compound 0.1 µM, first compound 0.03 µM
[38] = second compound 0.1 µM, first compound 0.0949 µM
[39] = second compound 0.1 µM, first compound 0.3 µM
[40] = second compound 0.316 µM, first compound 0.00949 µM
[41] = second compound 0.316 µM, first compound 0.03 µM
[42] = second compound 0.316 µM, first compound 0.0949 µM
[43] = second compound 0.316 µM, first compound 0.3 µM
[44] = second compound 1 µM, first compound 0.00949 µM
[45] = second compound 1 µM, first compound 0.03 µM
[46] = second compound 1 µM, first compound 0.0949 µM
[47] = second compound 1 µM, first compound 0.3 µM
[48] = second compound 3.16 µM, first compound 0.00949 µM
[49] = second compound 3.16 µM, first compound 0.03 µM
[50] = second compound 3.16 µM, first compound 0.0949 µM
[51] = second compound 3.16 µM, first compound 0.3 µM
[52] = second compound 10 µM, first compound 0.00949 µM
[53] = second compound 10 µM, first compound 0.03 µM
[54] = second compound 10 µM, first compound 0.0949 µM
[55] = second compound 10 µM, first compound 0.3 µM
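Also: spheroids exposed to agents for one week before readout.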

SMILES: CC(C)CC(NC(=O)C(Cc1ccccc1)NC(=O)c1cnccn1)B(O)O (configuration not stated) + NC1CCC(NC2CC2c2ccccc2)CC1
IC50 [1]: 2.62 nM | IC50 [2]: 2.93 nM | IC50 [3]: 2.18 nM | IC50 [4]: 1.95 nM | IC50 [5]: 2.83 nM | viability, T/C [6]: 105% | viability, T/C [7]: 114% | viability, T/C [8]: 38.4% | viability, T/C [9]: 0.08% | viability, T/C [10]: 1.9% | viability, T/C [11]: 2.95% | viability, T/C [12]: 110% | viability, T/C [13]: 107% | viability, T/C [14]: 46% | viability, T/C [15]: 0.06% | viability, T/C [16]: 0.03% | viability, T/C [17]: 1.83% | viability, T/C [18]: 109% | viability, T/C [19]: 100% | viability, T/C [20]: 25.9% | viability, T/C [21]: 0.26% | viability, T/C [22]: 3.69% | viability, T/C [23]: 3.26% | viability, T/C [24]: 90.9% | viability, T/C [25]: 94.5% | viability, T/C [26]: 19.2% | viability, T/C [27]: 0.04% | viability, T/C [28]: 2.68% | viability, T/C [29]: 0.1% | viability, T/C [30]: 87.7% | viability, T/C [31]: 80.8% | viability, T/C [32]: 46.9% | viability, T/C [33]: 0.13% | viability, T/C [34]: 0.6% | viability, T/C [35]: 0.18%

SMILES: O=C(C=Cc1cccc(S(=O)(=O)Nc2ccccc2)c1)NO + NC1CC1c1ccc(-c2cccc(O)c2)cc1
IC50 [1]: > 3000 nM | IC50 [2]: > 3000 nM | IC50 [3]: > 3000 nM | IC50 [4]: 908 nM | IC50 [5]: 759 nM | viability, T/C [36]: 108% | viability, T/C [37]: 134% | viability, T/C [38]: 118% | viability, T/C [39]: 113% | viability, T/C (second compound 0.1 µM, first compound 0.949 µM): 14.4% | viability, T/C (second compound 0.1 µM, first compound 3 µM): 89.1% | viability, T/C [40]: 126% | viability, T/C [41]: 112% | viability, T/C [42]: 124% | viability, T/C [43]: 115% | viability, T/C (second compound 0.316 µM, first compound 0.949 µM): 10.3% | viability, T/C (second compound 0.316 µM, first compound 3 µM): 97% | viability, T/C [44]: 95.2% | viability, T/C [45]: 109% | viability, T/C [46]: 113% | viability, T/C [47]: 113% | viability, T/C (second compound 1 µM, first compound 0.949 µM): 9.43% | viability, T/C (second compound 1 µM, first compound 3 µM): 91.8% | viability, T/C [48]: 86% | viability, T/C [49]: 104% | viability, T/C [50]: 93.8% | viability, T/C [51]: 108% | viability, T/C (second compound 3.16 µM, first compound 0.949 µM): 7.54% | viability, T/C (second compound 3.16 µM, first compound 3 µM): 88.7% | viability, T/C [52]: 86% | viability, T/C [53]: 91.9% | viability, T/C [54]: 90.9% | viability, T/C [55]: 109% | viability, T/C (second compound 10 µM, first compound 0.949 µM): 5% | viability, T/C (second compound 10 µM, first compound 3 µM): 73.7%

SMILES: CC[C@@]1(O)C(=O)OCc2c1cc1n(c2=O)Cc2cc3c(CN(C)C)c(O)ccc3nc2-1 + NC1CCC(NC2CC2c2ccccc2)CC1
IC50 [1]: > 100 nM | IC50 [2]: 31.6 nM | IC50 [3]: > 100 nM | IC50 [4]: > 100 nM | IC50 [5]: > 100 nM | viability, T/C [6]: 104% | viability, T/C [7]: 76.6% | viability, T/C [8]: 79.7% | viability, T/C [9]: 64% | viability, T/C [10]: 71.9% | viability, T/C [11]: 87.9% | viability, T/C [12]: 93.7% | viability, T/C [13]: 80.1% | viability, T/C [14]: 88.9% | viability, T/C [15]: 47.5% | viability, T/C [16]: 54.5% | viability, T/C [17]: 66.1% | viability, T/C [18]: 65.9% | viability, T/C [19]: 63.9% | viability, T/C [20]: 50.3% | viability, T/C [21]: 51.5% | viability, T/C [22]: 71.2% | viability, T/C [23]: 63.8% | viability, T/C [24]: 92% | viability, T/C [25]: 74.9% | viability, T/C [26]: 56.8% | viability, T/C [27]: 53.6% | viability, T/C [28]: 58.8% | viability, T/C [29]: 69.9% | viability, T/C [30]: 76.9% | viability, T/C [31]: 82.9% | viability, T/C [32]: 68.4% | viability, T/C [33]: 48% | viability, T/C [34]: 60.8% | viability, T/C [35]: 80.7%

SMILES: Nc1ncn(C2CC(O)C(CO)S2)c(=O)n1 (configuration not stated) + NC1CC1c1ccc(-c2cccc(O)c2)cc1
IC50 [1]: 100 nM | IC50 [2]: 102 nM | IC50 [3]: 124 nM | IC50 [4]: 128 nM | IC50 [5]: 81.5 nM | viability, T/C (second compound 0.1 µM, first compound 0.000949 µM): 95.5% | viability, T/C (second compound 0.1 µM, first compound 0.003 µM): 94.1% | viability, T/C [36]: 117% | viability, T/C [37]: 101% | viability, T/C [38]: 51.2% | viability, T/C [39]: 25.6% | viability, T/C (second compound 0.316 µM, first compound 0.000949 µM): 108% | viability, T/C (second compound 0.316 µM, first compound 0.003 µM): 96.7% | viability, T/C [40]: 114% | viability, T/C [41]: 114% | viability, T/C [42]: 51.2% | viability, T/C [43]: 31.5% | viability, T/C (second compound 1 µM, first compound 0.000949 µM): 85.7% | viability, T/C (second compound 1 µM, first compound 0.003 µM): 96.4% | viability, T/C [44]: 103% | viability, T/C [45]: 87% | viability, T/C [46]: 57.2% | viability, T/C [47]: 26.7% | viability, T/C (second compound 3.16 µM, first compound 0.000949 µM): 81% | viability, T/C (second compound 3.16 µM, first compound 0.003 µM): 86.9% | viability, T/C [48]: 85.8% | viability, T/C [49]: 89.1% | viability, T/C [50]: 58.4% | viability, T/C [51]: 26% | viability, T/C (second compound 10 µM, first compound 0.000949 µM): 80.2% | viability, T/C (second compound 10 µM, first compound 0.003 µM): 83.4% | viability, T/C [52]: 81.5% | viability, T/C [53]: 83.8% | viability, T/C [54]: 45% | viability, T/C [55]: 34.7%

IC50 (compound alone, run of 02/01/2022): > 10000 nM
SMILES: NC1CC1c1ccc(-c2cccc(O)c2)cc1 (configuration not stated)
viability, T/C (compound 0.1 µM): 91.3% and 107%

SMILES: Cn1ncnc1C1c2n[nH]c(=O)c3cc(F)cc(c23)NC1c1ccc(F)cc1 (configuration not stated) + NC1CCC(NC2CC2c2ccccc2)CC1
IC50 [1]: > 100 nM | IC50 [2]: > 100 nM | IC50 [3]: > 100 nM | IC50 [4]: > 100 nM | IC50 [5]: > 100 nM | viability, T/C [6]: 103% | viability, T/C [7]: 99.2% | viability, T/C [8]: 94.4% | viability, T/C [9]: 104% | viability, T/C [10]: 96.3% | viability, T/C [11]: 77.8% | viability, T/C [12]: 113% | viability, T/C [13]: 110% | viability, T/C [14]: 100% | viability, T/C [15]: 102% | viability, T/C [16]: 106% | viability, T/C [17]: 110% | viability, T/C [18]: 83.8% | viability, T/C [19]: 87.1% | viability, T/C [20]: 78.1% | viability, T/C [21]: 87.5% | viability, T/C [22]: 70.7% | viability, T/C [23]: 97% | viability, T/C [24]: 83% | viability, T/C [25]: 85.7% | viability, T/C [26]: 83.6% | viability, T/C [27]: 81.6% | viability, T/C [28]: 76.1% | viability, T/C [29]: 79.1% | viability, T/C [30]: 75.7% | viability, T/C [31]: 73.4% | viability, T/C [32]: 73.4% | viability, T/C [33]: 80.9% | viability, T/C [34]: 65.1% | viability, T/C [35]: 68.5%

Reference: PubChem BioAssay AID1918930 (Molecular Pharmacology Branch, DTP, NCI, 2023)
